What was measured:
Type in all cases: in vivo
C57Bl/6 mice = assay: Pentylenetetrazole (PTZ)-induced excitotoxic seizure model; details: for mean seizure severity (score 0 to 5): n=9
Procedure: (§1) FIG. 3. LIMK1 inhibition reduced susceptibility to induced seizures and mitigated neuronal network hypersynchronisity in mice. (A) Excitotoxic seizures were induced by acute intraperitoneal injection of 50 mg/kg body weight pentylenetetrazole (PTZ) followed by timing and scoring (0=no seizures to 7=terminal status epilepticus) of seizure development. Mice were treated with vehicle or 10 mg/kg body weight LIMK1 inhibitor LIMKi intraperitoneally 30 minutes prior to seizure induction. […] (B) Compound hippocampal electroencephalography (EEG) recordings over 4 hours in non-transgenic (wt) and APP transgenic (APP23) mice including 2 hours before (Pre) and 2 hours after (Post) LIMKi or vehicle administration. Time of intraperitoneal LIMKi and vehicle administration is indicated with an arrow. […] Frequent spikes pre and post vehicle administration in APP23 mice. In contrast, LIMKi injection mitigates spike activity in APP23 post injection. […] From left to right: non-Tg+vehicle; non-Tg+LIMKi; APP23+vehicle; APP23+LIMKi.
Seizure model. Excitotoxic seizure were induced in mice by intraperitoneal injection of 50 mg/kg body weight pentylenetetrazole followed by observation in a square area (40×40 cm). Scoring of seizures was done as previously described (Ittner et al., 2010, Cell 142, 387-397). For LIMKi-treated mice, scoring was adjusted by combining the severe seizure scores 5 to 7 into a single score of 5. For both scales, minor to moderate seizures are reflected by scores <5.
(§2) Next, the inventors tested the effects of acute Compound 1 administration on neuronal network activity in APP23 mice. […] Furthermore, CFC 1 hour after Compound 1 administration was re-established (data not shown). […] Thus, inhibition of LIMK1 with Compound 1 conferred protection from Aβ toxicity in neurons and from excitotoxicity in vivo. Furthermore, treatment of APP23 with Compound 1 corrected network aberrations including CFC.

APP23 mice = assay: Telemetric hippocampal EEG recordings (spike analysis, cross frequency coupling) in APP23 mice; details: for amplitude phase in EEG recordings / modulation index of cross frequency coupling: vs wt controls; for spike frequency / hypersynchronous discharges in EEG: intraperitoneal, 2 hours pre vs 2 hours post administration, and vs vehicle
Procedure: as §1
Mice. APP23 express human Swedish mutant (K595N/M596L) amyloid-β precursor protein (APP) in neurons (Sturchler-Pierrat et al., 1997, Proc Natl Acad Sci USA 94, 13287-13292). Limk1^−/− mice have been reported previously (Meng et al., 2002, Neuron 35, 121-133). All mice were on a pure C57Bl/6 background. Mice were housed in standard individually ventilated cages on a 12 hour light/dark cycle with access to standard chow and water ad libitum. Mice of both genders were used unless otherwise indicated. Investigators were blinded to genotypes until after completion of data analysis. All experiments were approved by the Animal Ethics Committee of Macquarie University.
Electroencephalography. Hippocampal EEG recordings were done with implanted telemetric electrodes (D.S.I.) as previously described (Ittner et al., 2014, Acta neuropathologica communications 2, 149). All recordings were done with mice individually housed in their home cages one week after implantation of transmitters. Compound administration was done intraperitoneally during transient restraining of mice. Vehicle for the LIMK1 inhibitor LIMKi contained hydroxypropyl methylcellulose 606 (HPMC 606) with polyvinylpyrrolidone k17 (PVP k17) and tween 80 in a proportion of 0.5%, 0.5%, 0.1%, respectively. Spike analysis was done with the Neuroscore software module (D.S.I.) as previously described (Ittner et al., 2016, Science 354, 904-908). Cross frequency coupling of theta and gamma waves was performed as previously described (Ittner et al., 2016, Science 354, 904-908).
as §2

non-transgenic (wt) mice = assay: Telemetric hippocampal EEG recordings in non-transgenic (wt) mice; details: pre and post intraperitoneal injection
Procedure: as §1
Electroencephalography. Hippocampal EEG recordings were done with implanted telemetric electrodes (D.S.I.) as previously described (Ittner et al., 2014, Acta neuropathologica communications 2, 149). All recordings were done with mice individually housed in their home cages one week after implantation of transmitters. […]

[1] = 10 mg/kg intraperitoneally 30 minutes prior to 50 mg/kg PTZ i.p., vs vehicle controls
[2] = 1 hour after administration, n=8
[3] = 1 hour after administration, n=8, listed as LIMKi

Cc1c[nH]c2ncnc(N3CCN(/C(=N\C#N)Nc4cccc(Br)c4)[C@@H](C)C3)c12 [Compound 1]
latency to develop severe seizures (C57Bl/6 mice; 10 mg/kg 30 minutes prior to PTZ, C57Bl/6 mice): increased the latency to develop severe seizures
development of severe seizure stages over time (score=5) (C57Bl/6 mice; [1]): Only vehicle-treated mice develop severe seizure stages over time
latency to develop lower grade seizures (score <5) (C57Bl/6 mice; [1]): Delayed latency to develop lower grade seizures
mean seizure severity (score 0 to 5) (C57Bl/6 mice; [1]): significantly reduced mean seizure severity
mean seizure severity (score 0 to 5) (C57Bl/6 mice; 10 mg/kg intraperitoneally 30 minutes prior to 50 mg/kg PTZ i.p., vs vehicle controls, listed as LIMKi): Significantly reduced seizure severity
cross frequency coupling (CFC) (APP23 mice; 1 hour after administration, data not shown): re-established
amplitude phase in EEG recordings (APP23 mice; [2]): normalized
modulation index of cross frequency coupling (APP23 mice; [2]): normalized
amplitude phase in EEG recordings (APP23 mice; [3]): corrected 1 hour after LIMKi delivery and no longer different from wt controls
modulation index of cross frequency coupling (APP23 mice; [3]): corrected 1 hours after LIMKi administration and no longer different from wt controls
spike frequency / hypersynchronous discharges in EEG (APP23 mice; n=8): hypersynchronicity significantly decreased
spike frequency / hypersynchronous discharges in EEG (APP23 mice; n=8, listed as LIMKi): significantly reduced spike frequency
spike activity in EEG (non-transgenic (wt) mice): No overt spike activity

Reference: US20220288081A1, “TREATMENT OF EXCITOTOXICITY-RELATED CONDITIONS” (priority 2019, published 2022)
